We go through 3 molecules from paper PMC11243693, “Synthesis and Biological Evaluation of New Compounds with Nitroimidazole Moiety” (Molecules, 2024).

In data set [1] the test system is SW620 cells. As to the kind of experiment: MTT assay, SW620 cells. It is filed as cell-based, human. The following applies: SW-620; SW620 human metastatic colon cancer, MTT, 24 h, mean SD.
Data set [2] has as its system MDA-MB-231 cells. As to the kind of experiment: MTT assay, MDA-MB-231 cells. In kind it is cell-based, human. On the procedure:
(§1) Colon cancer (SW480), breast adenocarcinoma (MDA-MB-231), lung carcinoma (A-549), prostate cancer (PC3), and immortal keratinocyte (HaCaT) cell lines of human origin were acquired from the American Type Culture Collection (ATCC). The recommended culture media and protocols provided by ATCC were as follows: SW480 were cultured in Minimum Essential Medium (MEM), MDA-MB-231, A-549, and HaCaT cells were cultured in Dulbecco’s Modified Eagle Medium (DMEM), while PC3 was cultured in Roswell Park Memorial Institute Medium (RPMI). The culture media were supplemented with 10% fetal bovine serum (FBS), penicillin (100 U/mL), and streptomycin (100 μg/mL). Cells were maintained in a humidified incubator at 37 °C with 5% CO2. Passaging was carried out upon reaching 80–90% confluence using 0.25% trypsin (Gibco Life Technologies, New York, NY, USA) treatment prior to experimentation.
(§2) Cell viability was assessed utilizing the MTT assay, which relies on the conversion of 3-(4,5-dimethylthiazol-2-yl)-2,5-diphenyltetrazolium bromide salt (MTT) to formazan crystals by mitochondrial dehydrogenases in viable cells. Initially, cells were plated in 96-well plates at a density of 1 × 10^4 cells per well and allowed to attach for 24 h at 37 °C in a CO2 incubator. Subsequently, the culture medium was replaced with fresh medium containing various concentrations of the test compounds (ranging from 1 to 100 μM), and cells were further cultured for 24 h at 37 °C in a CO2 incubator. Control wells were left untreated for comparison. After the incubation period, MTT solution (0.5 mg/mL in serum-free medium) was added to each well, followed by a 4-h incubation at 37 °C in a CO2 incubator. The medium was then aspirated, and the formazan crystals were dissolved by adding a mixture of isopropanol and DMSO (1:1). The absorbance of the resulting solution was measured at 570 nm using a UVM 340 reader (ASYS Hitech GmbH, Seekirchen am Wallersee, Austria). IC50 values were determined using GraphPad software (GraphPad Prism 8 Software).

The subject of data set [3] is A-549 cells. As to the kind of experiment: MTT assay, A-549 cells. In kind it is cell-based, human. The protocol:
as §1, §2

In data set [4] the test system is PC3 cells. As to the kind of experiment: MTT assay, PC3 cells. The note with it: PC-3; PC3 human metastatic prostate cancer, MTT, 24 h, mean SD. In kind it is cell-based, human. On the procedure:
as §1, §2
A general note: Tetrazolium dyes change colour on reduction, which living cells bring about.

Data set [5] has as its system HaCaT cells. As to the kind of experiment: MTT assay, HaCaT normal cells. It is filed as cell-based. The note with it: HaCaT human immortal keratinocyte (normal cells), 24 h, mean SD. On the procedure:
as §1, §2

For data set [6], the system named is normal and cancer cell lines. As to the kind of experiment: MTT assay, normal and cancer cell lines. It is filed as cell-based, human. The note with it: in words, 1 to 100 µM, 24 h. On the procedure:
as §1
Cell viability was assessed utilizing the MTT assay, which relies on the conversion of 3-(4,5-dimethylthiazol-2-yl)-2,5-diphenyltetrazolium bromide salt (MTT) to formazan crystals by mitochondrial dehydrogenases in viable cells. […] The absorbance of the resulting solution was measured at 570 nm using a UVM 340 reader (ASYS Hitech GmbH, Seekirchen am Wallersee, Austria). IC50 values were determined using GraphPad software (GraphPad Prism 8 Software).

On to `COc1ccc(O)c(C=NNC(=O)c2nc([N+](=O)[O-])cn2C)c1` [Compound 31, N’-[(2-hydroxy-5-methoxyphenyl)methylidene]-1-methyl-4-nitro-1H-imidazole-2-carbohydrazide], for which the melting point – broadly, the temperature, or range, at which the solid turns liquid – lay within 236 to 238 °C. Moreover, the IC50 (commonly the concentration that gives 50% inhibition) in data set [1] is 86.3 ± 3.81 µM. In data set [2] (IC50 for normal cell line (HaCaT)/IC50 MDA-MB-231), the “SI (Selectivity Index)” value was determined as 1. The molecule further came in with an IC50 in data set [2] (MDA-MB-231 human breast adenocarcinoma, MTT, 24 h, mean SD) of over 100 µM. In data set [3] (A549, A-549 human lung carcinoma, MTT, 24 h, mean SD), this molecule displayed a half-inhibitory concentration (IC50) of over 100 µM. The “SI (Selectivity Index)” value in data set [3] (IC50 for normal cell line (HaCaT)/IC50 A-549) turned out to be 1. Also, the IC50 in data set [4] is 70.4 ± 2.76 µM. This molecule also returned an IC50 in data set [5] of over 100 µM.

`COc1cc(C=NNC(=O)c2nc([N+](=O)[O-])cn2C)ccc1O` [Compound 32, N’-[(4-hydroxy-3-methoxyphenyl)methylidene]-1-methyl-4-nitro-1H-imidazole-2-carbohydrazide] came in with a melting point of 241 to 243 °C. Further, the “cytotoxic potential on normal and cancer cell lines” value in data set [6] is “did not show cytotoxic activity”.

The molecule `COc1cc(O)ccc1C=NNC(=O)c1nc([N+](=O)[O-])cn1C` [Compound 33, N’-[(4-hydroxy-2-methoxyphenyl)methylidene]-1-methyl-4-nitro-1H-imidazole-2-carbohydrazide] came in with a melting point of 233 to 235 °C. The “cytotoxic potential on normal and cancer cell lines” value in data set [6] is given as “did not show cytotoxic activity”.
